Source: patent US5508311A, “Aliphatic propargylamines as selective MAO-B inhibitors and as neuroprotective agents” (University of Saskatchewan, priority 1993, dated 1996)
Counter-ions that a name gives are not always drawn. Like-named read-outs stand apart in the source and are kept apart here.

Key:
MAO-A [1] = target: T1, MAO-A (Rattus norvegicus, UniProt P21396); test: biochemical; assay type: biochemical; conditions: substrate 5-HT (5 × 10^-4 M); rat liver MAO, in vitro; average of at least 3 independent experiments
T1 sequence (P21396 1-526): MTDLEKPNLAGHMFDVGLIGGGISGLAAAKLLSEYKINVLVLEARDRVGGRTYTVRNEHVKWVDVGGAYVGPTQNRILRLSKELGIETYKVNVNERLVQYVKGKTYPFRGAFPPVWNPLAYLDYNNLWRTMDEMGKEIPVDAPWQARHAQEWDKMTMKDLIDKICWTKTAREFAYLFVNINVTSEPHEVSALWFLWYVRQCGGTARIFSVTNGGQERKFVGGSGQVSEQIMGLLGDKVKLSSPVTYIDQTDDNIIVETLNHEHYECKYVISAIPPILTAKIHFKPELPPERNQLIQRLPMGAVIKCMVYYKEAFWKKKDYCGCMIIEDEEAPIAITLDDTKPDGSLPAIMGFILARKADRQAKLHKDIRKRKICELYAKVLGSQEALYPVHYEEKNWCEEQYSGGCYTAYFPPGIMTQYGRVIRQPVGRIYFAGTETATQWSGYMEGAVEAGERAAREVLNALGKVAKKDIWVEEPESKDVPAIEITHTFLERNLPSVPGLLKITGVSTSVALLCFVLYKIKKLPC
Procedure: (§1) The aliphatic propargylamine inhibitors (from 1×10^-10 M to 1×10^-4 M) were preincubated with the MAO for 20 min. at ambient room temperature and then the residual enzyme activities were determined by addition of the substrates, followed by further incubation at 37° C. for 30 min. The enzymatic reactions were terminated by the addition of citric acid and the aldehyde products were extracted with toluene: ethyl acetate (1:1, v/v) and the radio-activities assessed in a scintillation counter.

MAO-B [2] = target: T2, MAO-B (Rattus norvegicus, UniProt P19643); test: biochemical; assay type: biochemical
T2 sequence (P19643 1-520): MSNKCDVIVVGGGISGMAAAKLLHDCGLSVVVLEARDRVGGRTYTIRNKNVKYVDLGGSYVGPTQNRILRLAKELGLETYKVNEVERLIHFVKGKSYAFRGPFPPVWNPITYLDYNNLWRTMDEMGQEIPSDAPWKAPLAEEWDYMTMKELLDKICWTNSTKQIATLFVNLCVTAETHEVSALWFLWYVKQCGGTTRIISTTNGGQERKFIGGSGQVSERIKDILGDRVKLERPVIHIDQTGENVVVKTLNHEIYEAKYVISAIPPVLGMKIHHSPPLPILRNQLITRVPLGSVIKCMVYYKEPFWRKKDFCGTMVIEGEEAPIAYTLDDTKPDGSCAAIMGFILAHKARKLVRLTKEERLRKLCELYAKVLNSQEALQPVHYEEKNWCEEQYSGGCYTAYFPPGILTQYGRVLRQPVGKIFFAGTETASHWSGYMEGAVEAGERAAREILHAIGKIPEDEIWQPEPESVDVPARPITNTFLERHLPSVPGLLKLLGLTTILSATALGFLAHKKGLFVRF
Procedure: as §1

monoamine oxidase = test: Inhibition of rat liver monoamine oxidase deamination of dopamine (DA, mixed-type MAO A and B substrate) in vitro; assay type: biochemical; conditions: substrate DA (5 × 10^-4 M), average of at least 3 independent experiments
Procedure: as §1

MAO-B [3] = target: T3, MAO-B (Mus musculus, UniProt Q8BW75); test: in vivo; assay type: in vivo; conditions: for MAO-B ID50 (mg/Kg) / IC50 (1 × 10^-6 M): ID50 i.p. in mice versus IC50 in vitro; for ED50: 2 hours after administration, estimated from dose response curves, read-out: PE ID50; for Ratio MAO-A/MAO-B: 120 min
T3 construct: MAO activities in the mouse brain after; from tissue
T3 sequence (Q8BW75 1-520): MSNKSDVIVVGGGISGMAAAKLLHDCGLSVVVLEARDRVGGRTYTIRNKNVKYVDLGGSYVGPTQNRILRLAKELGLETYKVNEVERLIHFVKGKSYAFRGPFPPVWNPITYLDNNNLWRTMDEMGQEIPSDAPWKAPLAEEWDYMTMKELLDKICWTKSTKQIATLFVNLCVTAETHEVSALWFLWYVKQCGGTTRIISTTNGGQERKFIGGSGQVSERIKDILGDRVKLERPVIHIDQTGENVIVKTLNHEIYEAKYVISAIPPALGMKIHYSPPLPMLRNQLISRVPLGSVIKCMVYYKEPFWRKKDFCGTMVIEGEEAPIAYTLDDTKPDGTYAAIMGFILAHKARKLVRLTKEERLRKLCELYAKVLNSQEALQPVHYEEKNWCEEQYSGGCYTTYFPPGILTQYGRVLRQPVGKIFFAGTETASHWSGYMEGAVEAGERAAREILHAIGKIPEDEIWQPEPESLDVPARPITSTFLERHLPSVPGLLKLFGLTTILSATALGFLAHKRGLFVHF
Procedure: (§2) Albino Swiss mice were used in this study. The animals were injected intraperitoneally with different doses of the aliphatic propargylamines in 100 μL saline.
(§3) 0.5, 1, 2, 5, 10, 20, 50, 100 mg/Kg. Striata were dissected from the brai
(§4) two hours after i.p. administration of the drugs. MAOA and MAOB activitie
(§5) were determined immediately. The values were estimated from doseresponse

MAO-A [4] = target: T4, MAO-A (Mus musculus, UniProt Q64133); test: in vivo; conditions: ip, read-out: 5-HT ID50
T4 construct: MAO activities in the mouse brain after; from tissue
T4 sequence (Q64133 1-526): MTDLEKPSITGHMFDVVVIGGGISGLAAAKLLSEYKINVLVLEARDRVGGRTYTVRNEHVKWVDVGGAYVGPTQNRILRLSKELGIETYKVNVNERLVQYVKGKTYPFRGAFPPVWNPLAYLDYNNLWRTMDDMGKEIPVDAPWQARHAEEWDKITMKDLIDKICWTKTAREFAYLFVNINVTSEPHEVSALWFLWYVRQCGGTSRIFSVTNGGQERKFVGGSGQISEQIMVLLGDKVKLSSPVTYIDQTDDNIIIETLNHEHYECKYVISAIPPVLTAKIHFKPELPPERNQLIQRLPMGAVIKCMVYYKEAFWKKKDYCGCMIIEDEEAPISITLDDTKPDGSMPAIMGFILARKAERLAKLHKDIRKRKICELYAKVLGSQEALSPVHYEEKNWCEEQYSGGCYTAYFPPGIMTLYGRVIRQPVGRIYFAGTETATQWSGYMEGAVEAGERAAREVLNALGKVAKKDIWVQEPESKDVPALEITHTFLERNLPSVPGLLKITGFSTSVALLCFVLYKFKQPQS
Procedure: as §2, §3, §4, §5

MAO-B [5] = target: T3, MAO-B; test: MAO-B activity in the mouse brain after oral administration (substrate PE); assay type: in vivo
Procedure: (§6) Table 3 indicates the MAO activities in the mouse brain following oral administration of the aliphatic propargylamines.
(§7) of each compound. Striata were dissected from the brain two hours after
(§8) the administration of the drugs. MAOA and MAOB activities were determined
Striata were dissected from the brain two
hours after oral administration of the drugs. MAOB activities were then
determined immediately. The values were estimated from doseresponse

MAO-A [6] = target: T4, MAO-A; assay type: in vivo; conditions: oral 10 mg/Kg, 2 hours; 5-HT (5 × 10^-4 M); mean ± standard error; saline = 100
Procedure: as §6, §7, §8

[7] = substrate PE (1.9 × 10^-5 M), rat liver MAO, in vitro, average of at least 3 independent experiments

C#CCN(C)CCCCCCO.Cl [Example 6-OH-Hx1MP, N-(6-Hydroxy-1-hexyl)-N-methylpropargylamine-HCl]
5-HT IC50 (MAO-A [1]): inactive | IC50 (MAO-B [2]; [7]): 100000 nM

C#CCN(C)C(C)CCCCCCCC.Cl (stereo not shown) [Example 2-DMP, N-(2-Decyl)-N-methylpropargylamine hydrochloride]
IC50 (MAO-A [1]): 4000 nM | Ratio MAO-A/MAO-B (MAO-B [2]; ratio of IC50 values, in vitro): 50 | IC50 (MAO-B [2]; read-out: PE IC50): 200 nM | IC50 (monoamine oxidase): 200 nM | MAO-B ID50 (mg/Kg) / IC50 (1 × 10^-6 M) (MAO-B [3]): 25 (mg/Kg)/(1 × 10^-6 M) | ED50 (MAO-B [3]; mouse, ip): 5 mg/kg | Ratio MAO-A/MAO-B (MAO-B [3]; ratio of ID50 values, i.p.): 7 | ED50 (MAO-A [4]; 2 hours after administration, 5-HT 5 × 10^-4 M, estimated from dose response curves): 35 mg/kg | effectiveness in blocking MAO-B activity in vivo after acute oral administration (in words) (MAO-B [5]; mouse, oral): less potent at inhibiting MAO-B activity in vivo after acute administration | ED50 (MAO-B [5]; mouse, oral, 2 hours, average of 5 animals per dose, estimated from dose response curves, read-out: Inhibition of MAO-B activity, dose response (ID50)): 50 mg/kg | Relative activity PE (MAO-B [5]; oral 10 mg/Kg, 2 hours, PE (1.9 × 10^-5 M), mean ± standard error, saline = 100): 104 ± 7% | Relative activity 5-HT (MAO-A [6]): 97 ± 8%

C#CCCN(C)C(C)CC.O=C(O)C(=O)O (stereo not shown) [Example 3-BuBuM, N-(3-Butynyl)-N-(2-butyl)methylamine oxalate salt]
5-HT IC50 (MAO-A [1]): inactive | PE IC50 (MAO-B [2]): inactive

C#CCN(C)CCCCCl.Cl [Cl-1-BuMP, N-(4-Chloro-1-butyl)-N-methylpropargylamine-HCl]
IC50 (MAO-A [1]): > 100000 nM | IC50 (MAO-B [2]; […], rat liver MAO, in vitro, average of at least 3 independent experiments, read-out: PE IC50): 10000 nM | Ratio MAO-A/MAO-B (MAO-B [2]; ratio of IC50 values, in vitro): > 10

C#CCNC(C)CC.Cl (stereo not shown) [Example 2-BuPP, N-(2-Butyl)propargylamine hydrochloride salt]
5-HT IC50 (MAO-A [1]): inactive | PE IC50 (MAO-B [2]): inactive

C#CCN(C)C(C)CCCC(=O)OCC.Cl (stereo not shown) [Example 5-CP2MP, N-(5-Carbethoxy-2-pentyl)-N-methylpropargylamine-HCl]
5-HT IC50 (MAO-A [1]): inactive | PE IC50 (MAO-B [2]): inactive | DA IC50 (monoamine oxidase): inactive

C#CCN(C)C(CC)CC.O=C(O)C(=O)O [Example M-3-PP, N-Methyl-N-(3-pentyl)propargylamine oxalate]
IC50 (MAO-A [1]): 2000 nM | Ratio MAO-A/MAO-B (MAO-B [2]; rat, liver mitochondrial membranes): 10 | IC50 (MAO-B [2]; read-out: PE IC50): 200 nM | MAO-B ID50 (mg/Kg) / IC50 (1 × 10^-6 M) (MAO-B [3]): 10 (mg/Kg)/(1 × 10^-6 M) | Ratio MAO-A/MAO-B (MAO-B [3]; mouse, in vivo, ip): 12 | ED50 (MAO-B [3]; mouse, ip): 1 mg/kg | ED50 (MAO-A [4]; 2 h): 12 mg/kg

C#CCN(C)CCCC(=O)O [Example 3-CP-MP, N-(3-Carboxy-1-propyl)-N-methylproparglamine oxalate]
5-HT IC50 (MAO-A [1]): inactive | PE IC50 (MAO-B [2]; [7]): inactive | DA IC50 (monoamine oxidase): inactive
